{"source": "patent US20250129102A1", "about": "“CRYSTAL FORM OF PYRIMIDINE HETEROCYCLIC COMPOUND AND PREPARATION METHOD THEREFOR” (D3 Bio (Wuxi) Co., Ltd., priority 2021, published 2025)", "key": {"[1]": {"assay": "Metabolic stability in hepatocytes, beagle dogs", "type": "in vitro ADME", "conditions": "dog, cryopreserved hepatocytes", "procedure": "Metabolic stabilities of assay compound in hepatocytes of CD-1 mice, SD rats, beagle dogs, cynomolgus monkeys, and human were assayed, respectively.\nSeveral 96-well sample precipitation plates were prepared and named T0, T15, T30, T60, T90, T120, T0-MC, T120-MC and blank substrates, respectively. The recovery medium and incubation medium were taken out in advance and placed in a 37° C. water bath for pre-heating. Cryopreserved hepatocytes were removed from the liquid nitrogen tank and immediately immersed in a 37° C. water bath (approximately 90 seconds). After the cryopreserved hepatocytes had thawed and loosened, they were poured into a centrifuge tube containing 40 mL of recovery medium, and the tube was gently inverted to allow the cells to be resuspended in the recovery medium. The cells were centrifuged at 100×g at room temperature for 5 min, and the supernatant was removed. The hepatocytes were resuspended in an appropriate volume of incubation medium, and the cell viability was calculated by Trypan Blue staining method. 198 μL of hepatocyte suspension (0.51×10^6 cells/mL) was added to the preheated incubation plate. For the culture medium control group, 198 μL of hepatocyte-free incubation medium was added to T0-MC and T120-MC incubation plate. All incubation plates were pre-incubated in a 37° C. incubator for 10 minutes. Then 2 μL of working solutions of the assay sample and the control compound were added, respectively, and the mixture was mixed well. The incubation plate was immediately put into the shaker in the incubator, and the reaction was initiated while starting the timer. For each time point of each compound, 2 duplicate samples were prepared. The incubation conditions were 37° C., saturated humidity, and 5% CO2. […] All samples were mixed well and analyzed by LC/MS/MS."}, "[2]": {"system": "KRAS^G12C-mutated H358 cells", "assay": "cells", "conditions": "Homo sapiens, NCI-H358, 120 h, read-out: NCI-H358 IC50", "procedure": "The main instrument used in this assay was a Nivo multi-label analyzer (PerkinElmer).\nThe assay was carried out in duplicate. 78 μL of medium was added to the intermediate plate, and then 2 μL of the serially diluted compound was transferred to each well of the intermediate plate according to the corresponding position. After mixing well, 20 μL per well was transferred to the cell plate. […] The cell plate was incubated in a carbon dioxide incubator for 5 days. Another cell plate was prepared, and the signal value of the cell plate was read on the day of compound addition as the maximum value (Max value in the equation below) to participate in data analysis. 25 μL of cell viability chemiluminescence detection reagent was added to each well of the cell plate, and the plate was incubated at room temperature for 10 minutes to stabilize the luminescence signal. A multi-label analyzer was used for reading the plate. • 3) 25 μL of cell viability chemiluminescence detection reagent was added to each well of the cell plate, and the plate was incubated at room temperature for 10 minutes to stabilize the luminescence signal. A multi-label analyzer was used for reading the plate."}, "[3]": {"assay": "Protein binding rate in plasma by equilibrium dialysis, human", "type": "in vitro ADME", "conditions": "2 μM, equilibrium dialysis 4 hours", "procedure": "Protein binding rate of the assay compound in plasma of CD-1 mice, SD rats, beagle dogs, cynomolgus monkeys and human was determined by equilibrium dialysis. Plasma samples with a compound concentration of 2 μM were prepared using plasma of the above five species, placed in a 96-well equilibrium dialysis device, and dialyzed with phosphate buffer solution at 37±1° C. for 4 hours. Warfarin was used as the control compound in this assay. The concentrations of the assay compound in plasma and dialysis buffer were determined by LC-MS/MS method."}, "[4]": {"assay": "In vitro stability in liver microsomes, cynomolgus monkeys", "type": "in vitro ADME", "conditions": "cynomolgus monkey, 0.5 mg/mL", "procedure": "Metabolic stabilities of the assay compound in liver microsomes of CD-1 mice, SD rats, beagle dogs, cynomolgus monkeys, and human were assayed, respectively.\nTwo 96-well incubation plates were prepared and named T60 incubation plate and NCF60 incubation plate, respectively. 445 μL of microsomal working solutions (liver microsomal protein concentration of 0.56 mg/mL) were added to the T60 incubation plate and the NCF60 incubation plate, respectively, and then the above incubation plates were pre-incubated in a 37° C. water bath for about 10 minutes.\nAfter the pre-incubation, 5 μL of working solutions of the assay sample or the control compound were added to the T60 incubation plate and the NCF60 incubation plate, respectively, and the mixture was mixed well. 50 μL of potassium phosphate buffer was added to each well of the NCF60 incubation plate to initiate the reaction. 180 μL of stop solution (200 ng/mL tolbutamide and 200 ng/mL labetalol in acetonitrile) and 6 uL of NADPH regeneration system working solution were added to the T0 stop plate, and 54 μL of sample was transferred from T60 incubation plate to T0 stop plate (generation of T0 sample). The reaction was initiated by adding 44 μL of NADPH regeneration system working solution to each well of the T60 incubation plate. Only 54 μL of microsome working solution, 6 uL of NADPH regeneration system working solution and 180 μL of stop solution were added to the Blank plate. Therefore, in samples of the assay compound or the control compound, the final reaction concentration of compound, testosterone, diclofenac and propafenone was 1 μM, the concentration of liver microsomes was 0.5 mg/mL, and the final reaction concentrations of DMSO and acetonitrile in the reaction system were 0.01% (v/v) and 0.99% (v/v), respectively. […] All samples were injected and analyzed by liquid chromatography-tandem mass spectrometry."}}}
{"smiles": "C=C(F)C(=O)N1CCN(c2nc(OC[C@@]34CCCN3C[C@H](F)C4)nc3c2CO[C@H](c2c(F)c(N)cc(C)c2C(F)(F)F)C3)C[C@@H]1CC#N", "note": "[Compound of formula (I)]", "values": [{"measurement": "half-life at 1 μM", "setting": "[1]", "value": 3.04, "unit": "h"}, {"measurement": "hepatocyte CLint at 1 μM", "setting": "[1]; read-out: CLint(hep)", "value": 7.6, "unit": "µL/min/1e6 cells"}, {"measurement": "CLint scaled at 1 μM", "setting": "[1]; read-out: CLint(liver)", "value": 52.3, "unit": "mL/min/kg"}, {"measurement": "IC50", "setting": "[2]", "value": 0.6, "unit": "nM"}, {"measurement": "Protein unbound rate (%)", "setting": "[3]", "value": 4.8, "unit": "%"}, {"measurement": "CLint scaled at 1 μM", "setting": "[4]", "value": 303, "unit": "mL/min/kg"}, {"measurement": "half-life at 1 μM", "setting": "[4]", "value": 6.2, "unit": "min"}, {"measurement": "microsomal CLint at 1 μM", "setting": "[4]; read-out: CLint(hep)", "value": 225, "unit": "µL/min/mg"}]}
